Results: patent US7371773B2, “Breast cancer resistance protein (BCRP) inhibitor” (Kabushiki Kaisha Yakult Honsha, priority 2003, dated 2008)
≈ marks a conversion by molar mass, not a printed value.

system: A549/SN-38-4 cell line; assay: Overcoming anticancer drug resistance of A549/SN-38-4 cell line; type: cell-based, human; details: not given
Experimental: The effect of a diphenylacrylonitrile derivative on BCRP-mediated anticancer drug resistance was studied by use of the human lung cancer A549/SN-38-4 cell line, which had acquired anticancer drug resistance through BCRP expression. The human lung cancer A549 cell line or the A549/SN-38-4 cell line was suspended in 10% FBS/Ham's F-12, and the resultant suspension was inoculated into a 96-well microplate, followed by culturing at 5% CO2 and 37° C. overnight (2×10^3 cells/50 μL/well). Thereafter, a 10% FBS/Ham's F-12 solution (25 μL) containing a diphenylacrylonitrile derivative and SN-38 or mitoxantrone was added to each of the wells, followed by culturing at 5% CO2 and 37° C. for 48 hours. After completion of culturing, the number of viable cells was counted by use of TetraColor ONE according to the attached instruction manual. […] The greater the relative resistance value, the higher the level of acquired resistance.

Row | Compound | Resistance overcoming effect EC50
1 | (Z)-2-(3,4-dimethoxyphenyl)-3-[4-(6-phospho-β-D-glucopyranosyl)-phenyl]-acrylonitrile [Compound 73] | 1.0 mg/L
2 | COc1ccc(/C(C#N)=C/c2ccc(OP(=O)(O)O)c(OC)c2)cc1OC [Compound 71, mono-{4-[(Z)-2-cyano-2-(3,4-dimethoxy-phenyl)-vinyl]-2-methoxy-phenyl} phosphate] | 0.29 mg/L
3 | (Z)-2-(3,4-dimethoxyphenyl)-3-(4-β-D-glucopyranosyl-phenyl)-acrylonitrile [Compound 44] | 0.024 mg/L
4 | COc1ccc(/C(C#N)=C/c2ccc(OP(=O)(O)O)cc2)cc1OC [Compound 70, mono-{4-[(Z)-2-cyano-2-(3,4-dimethoxy-phenyl)-vinyl]-phenyl} phosphate] | 0.24 mg/L

same assay, conditions: Homo sapiens, A549; SN-38 resistance, concentration for 50% reduction of relative resistance value, 48 hours; read-out: Resistance overcoming effect EC50

Row | Compound | EC50
5 | COc1ccc(/C(C#N)=C/c2cc(F)ccc2F)cc1OC [Compound 24, (Z)-3-(2,5-difluoro-phenyl)-2-(3,4-dimethoxy-phenyl)-acrylonitrile] | 0.0073 mg/L (≈ 0.0242 µM)
6 | COc1ccc(/C(C#N)=C/c2ccc([N+](=O)[O-])c(O)c2)cc1OC [Compound 53, (Z)-2-(3,4-dimethoxy-phenyl)-3-(3-hydroxy-4-nitro-phenyl)-acrylonitrile] | 0.048 mg/L (≈ 0.147 µM)
7 | COc1ccc(/C(C#N)=C/c2ccc(F)c(F)c2F)cc1OC [Compound 27, (Z)-2-(3,4-dimethoxy-phenyl)-3-(2,3,4-trifluoro-phenyl)-acrylonitrile] | 0.047 mg/L (≈ 0.147 µM)
8 | COC(=O)c1ccc(/C=C(\C#N)c2ccc(OC)c(OC)c2)cc1 [Compound 36, methyl 4-[(Z)-2-cyano-2-(3,4-dimethoxy-phenyl)-vinyl]-benzoate] | 0.2 mg/L (≈ 0.619 µM)
9 | COc1ccc(/C=C(\C#N)c2ccc(O)cc2)cc1OC [Compound 48, (Z)-3-(3,4-dimethoxy-phenyl)-2-(4-hydroxy-phenyl)-acrylonitrile] | 0.013 mg/L (≈ 0.0462 µM)
10 | COc1ccc(/C(C#N)=C/c2cccc(F)c2O)cc1OC [Compound 55, (Z)-2-(3,4-dimethoxy-phenyl)-3-(3-fluoro-2-hydroxy-phenyl)-acrylonitrile] | 0.015 mg/L (≈ 0.0501 µM)
11 | CCOC(=O)CCCCCCOc1ccc(/C=C(\C#N)c2ccc(OC)c(OC)c2)cc1 [Compound 66, ethyl 7-[4-[(Z)-2-cyano-2-(3,4-dimethoxy-phenyl)-vinyl]-phenoxy]-heptanoate] | 0.71 mg/L (≈ 1.62 µM)
12 | COc1ccc(/C(C#N)=C/c2cc([N+](=O)[O-])ccc2O)cc1OC [Compound 76, (Z)-2-(3,4-dimethoxy-phenyl)-3-(2-hydroxy-5-nitro-phenyl)-acrylonitrile] | 0.82 mg/L (≈ 2.51 µM)
13 | COc1ccc(/C(C#N)=C/c2ccc(F)cc2F)cc1OC [Compound 23, (Z)-3-(2,4-difluoro-phenyl)-2-(3,4-dimethoxy-phenyl)-acrylonitrile] | 0.048 mg/L (≈ 0.159 µM)
14 | COc1ccc(/C(C#N)=C/c2ccc(F)c([N+](=O)[O-])c2)cc1OC [Compound 77, (Z)-2-(3,4-dimethoxy-phenyl)-3-(4-fluoro-3-nitro-phenyl)-acrylonitrile] | 0.3 mg/L (≈ 0.914 µM)
15 | COc1ccc(/C(C#N)=C/c2ccc(Cl)c([N+](=O)[O-])c2)cc1OC [Compound 38, (Z)-3-(4-chloro-3-nitro-phenyl)-2-(3,4-dimethoxy-phenyl)-acrylonitrile] | 0.037 mg/L (≈ 0.107 µM)
16 | COc1ccc(/C(C#N)=C/c2ccc(O)cc2)cc1OC.[Na] [Compound 17, (Z)-2-(3,4-dimethoxy-phenyl)-3-(4-hydroxy-phenyl)-acrylonitrile sodium salt] | 0.018 mg/L
17 | CCOC(=O)CCC(=O)Oc1ccc(/C=C(\C#N)c2ccc(OC)c(OC)c2)cc1 [Compound 42, 4-[(Z)-2-cyano-2-(3,4-dimethoxy-phenyl)-vinyl]-phenyl ethyl succinate] | 0.038 mg/L
18 | COc1ccc(/C(C#N)=C/c2ccc(C=O)cc2)cc1OC [Compound 62, (Z)-2-(3,4-dimethoxy-phenyl)-3-(4-formyl-phenyl)-acrylonitrile] | 0.11 mg/L (≈ 0.375 µM)
19 | COc1ccc(/C(C#N)=C/c2cc3c(cc2[N+](=O)[O-])OCO3)cc1OC [Compound 46, (Z)-2-(3,4-dimethoxy-phenyl)-3-(6-nitro-benzo[1,3]dioxol-5-yl)-acrylonitrile] | 0.58 mg/L (≈ 1.64 µM)
20 | COc1ccc(/C(C#N)=C/c2ccc([N+](=O)[O-])cc2)cc1OC [Compound 19, (Z)-2-(3,4-dimethoxy-phenyl)-3-(4-nitro-phenyl)-acrylonitrile] | 0.019 mg/L (≈ 0.0612 µM)

The next lines start with the values.

Row | EC50 | Compound
21 | 0.024 mg/L | COc1ccc(/C=C(\C#N)c2ccc(OC(C)=O)cc2)cc1OC [Compound 61, 4-[(Z)-1-cyano-2-(3,4-dimethoxy-phenyl)-vinyl]phenyl acetate]
22 | 0.017 mg/L (≈ 0.0498 µM) | COc1ccc(/C(C#N)=C/c2cc(OC)c(O)c(OC)c2)cc1OC [Compound 79, (Z)-2-(3,4-dimethoxy-phenyl)-3-(4-hydroxy-3,5-dimethoxy-phenyl)-acrylonitrile]
23 | 0.041 mg/L (≈ 0.128 µM) | COc1ccc(/C(C#N)=C/c2cc(F)c(F)cc2F)cc1OC [Compound 30, (Z)-2-(3,4-dimethoxy-phenyl)-3-(2,4,5-trifluoro-phenyl)-acrylonitrile]
24 | 0.13 mg/L (≈ 0.398 µM) | COc1ccc(/C(C#N)=C/c2ccc(O)c([N+](=O)[O-])c2)cc1OC [Compound 45, (Z)-2-(3,4-dimethoxy-phenyl)-3-(4-hydroxy-3-nitro-phenyl)-acrylonitrile]
25 | 0.041 mg/L | COC(=O)CCC(=O)Oc1ccc(/C=C(\C#N)c2ccc(OC)c(OC)c2)cc1 [Compound 41, 4-[(Z)-2-cyano-2-(3,4-dimethoxy-phenyl)-vinyl]-phenyl methyl succinate]
26 | 0.016 mg/L (≈ 0.0492 µM) | COc1ccc(/C=C(\C#N)c2ccc(OC)c(OC)c2)cc1OC [Compound 56, (Z)-2,3-bis-(3,4-dimethoxy-phenyl)-acrylonitrile]
27 | 0.027 mg/L (≈ 0.0822 µM) | COc1ccc(/C(C#N)=C/c2cc([N+](=O)[O-])ccc2F)cc1OC [Compound 39, (Z)-2-(3,4-dimethoxy-phenyl)-3-(2-fluoro-5-nitro-phenyl)-acrylonitrile]
28 | 0.2 mg/L (≈ 0.56 µM) | N#C/C(=C\c1ccc(O)cc1)c1cc(C(F)(F)F)cc(C(F)(F)F)c1 [Compound 49, (Z)-2-(3,5-bis-trifluoromethyl-phenyl)-3-(4-hydroxy-phenyl)-acrylonitrile]
29 | 0.053 mg/L (≈ 0.187 µM) | COc1ccc(/C(C#N)=C/c2ccccc2F)cc1OC [Compound 20, (Z)-2-(3,4-dimethoxy-phenyl)-3-(2-fluoro-phenyl)-acrylonitrile]
30 | < 0.005 mg/L | COc1ccc(/C(C#N)=C/c2ccc(F)c(F)c2)cc1OC [Compound 25, (Z)-3-(3,4-difluoro-phenyl)-2-(3,4-dimethoxy-phenyl)-acrylonitrile]
31 | 0.043 mg/L (≈ 0.144 µM) | COc1ccc(/C(C#N)=C/c2ccc(O)c(F)c2)cc1OC [Compound 59, (Z)-2-(3,4-dimethoxy-phenyl)-3-(3-fluoro-4-hydroxy-phenyl)-acrylonitrile]
32 | 0.079 mg/L (≈ 0.282 µM) | COc1ccc(/C(C#N)=C/c2ccc(N)cc2)cc1OC [Compound 34, (Z)-3-(4-amino-phenyl)-2-(3,4-dimethoxy-phenyl)-acrylonitrile]
33 | 0.01 mg/L | COc1ccc(/C=C(\C#N)c2ccc(OC(C)=O)c(F)c2)cc1OC [Compound 64, 4-[(Z)-1-cyano-2-(3,4-dimethoxy-phenyl)-vinyl]-2-fluoro-phenyl acetate]
34 | 0.053 mg/L (≈ 0.143 µM) | COCCOCOc1ccc(/C(C#N)=C/c2ccc(OC)c(OC)c2)cc1 [Compound 47, (Z)-3-(3,4-dimethoxy-phenyl)-2-[4-(2-methoxy-ethoxymethoxy)-phenyl]-acrylonitrile]
35 | 0.053 mg/L (≈ 0.155 µM) | COc1ccc(/C(C#N)=C/c2cc(O)c(OC)c(OC)c2)cc1OC [Compound 78, (Z)-2-(3,4-dimethoxy-phenyl)-3-(3-hydroxy-4,5-dimethoxy-phenyl)-acrylonitrile]
36 | 0.15 mg/L (≈ 0.423 µM) | CCOc1ccc(/C=C(\C#N)c2ccc(OC)c(OC)c2)cc1[N+](=O)[O-] [Compound 40, (Z)-2-(3,4-dimethoxy-phenyl)-3-(4-ethoxy-3-nitro-phenyl)-acrylonitrile]
37 | 0.085 mg/L (≈ 0.274 µM) | COc1ccc(/C(C#N)=C/c2ccccc2[N+](=O)[O-])cc1OC [Compound 37, (Z)-2-(3,4-dimethoxy-phenyl)-3-(2-nitro-phenyl)-acrylonitrile]
38 | 0.065 mg/L (≈ 0.134 µM) | COc1ccc(/C=C(\C#N)c2ccc(OC(=O)CCCCCCCBr)cc2)cc1OC [Compound 67, 4-[(Z)-1-cyano-2-(3,4-dimethoxy-phenyl)-vinyl]-phenyl 8-bromo-octanoate]
39 | 0.1 mg/L (≈ 0.313 µM) | COc1ccc(/C(C#N)=C/c2c(F)ccc(F)c2F)cc1OC [Compound 29, (Z)-2-(3,4-dimethoxy-phenyl)-3-(2,3,6-trifluoro-phenyl)-acrylonitrile]
40 | 0.0063 mg/L (≈ 0.0222 µM) | COc1ccc(/C(C#N)=C/c2ccc(F)cc2)cc1OC [Compound 18, (Z)-2-(3,4-dimethoxy-phenyl)-3-(4-fluoro-phenyl)-acrylonitrile]
41 | 0.094 mg/L (≈ 0.334 µM) | COc1ccc(/C(C#N)=C\c2ccc(O)cc2)cc1OC [Compound 50, (E)-2-(3,4-dimethoxy-phenyl)-3-(4-hydroxy-phenyl)-acrylonitrile]
42 | 0.011 mg/L (≈ 0.0345 µM) | COc1ccc(/C(C#N)=C/c2cc(F)cc(F)c2F)cc1OC [Compound 28, (Z)-2-(3,4-dimethoxy-phenyl)-3-(2,3,5-trifluoro-phenyl)-acrylonitrile]

same assay, conditions: SN-38 resistance, concentration for 50% reduction of relative resistance value, 48 hours

Row | Compound | Resistance overcoming effect EC50
43 | CCN(CC)CC.COc1ccc(/C(C#N)=C/c2ccc(OS(=O)(=O)O)cc2)cc1OC [Compound 74, sulphoric acid mono-{4-[(Z)-2-cyano-2-(3,4-dimethoxy-phenyl)-vinyl]-phenyl} ester triethylammonium salt] | >1.0 mg/L
44 | (Z)-2-(3,4-dimethoxyphenyl)-3-(4-β-maltotriosyl-phenyl)-acrylonitrile [Compound 54] | 0.26 mg/L
